{
  "source": "patent US10342806B2",
  "about": "“Hormone treatment for age-related hearing loss-presbycusis” (priority 2014, dated 2019)",
  "key": {"NKCC1 [1]": {"system": "NKCC1", "experiment": "NKCC1 protein expression in HT-29 cells, Western blot", "format": "cell-based, human", "from_the_text": "Cell culture and buffers. […] Arch Oral Biol 52: 411-416, 2007). These include, for example, studies of COMM domain-containing protein 1, which is involved in NKCC1 ubiquitination and transcriptional regulation of epithelial Na^+ channels (ENaC) located in the apical membrane of polarized epithelial cells, in particular, cells in the colon, kidney, and lung, by ALD (Cohen, et al., Induced differentiation in HT29, a human colon adenocarcinoma cell line. J Cell Sci 112: […], 1999, Epple, et al., Early aldosterone effect in distal colon by transcriptional regulation of ENaC subunits. Am J Physiol Gastrointest Liver Physiol 278: G718-G724, 2000, Smith, et al., COMMD1 interacts with the COOH terminus of NKCC1 in Calu-3 airway epithelial cells to modulate NKCC1 ubiquitination. Am J Physiol Cell Physiol 305: C133-C146, 2013). HT-29 cells were grown in DMEM media (Invitrogen, Carlsbad Calif.) with 10% FBS and antibiotics. Cells were grown in a humidified 95%/5% CO2 incubator at 37° C. Experiments were performed at 70-80% confluence.\nWestern blot. Cell lysates were prepared in RIPA buffer (Pierce 89901; Thermo Scientific, Waltham, Mass.) with protease inhibitor cocktail (78430; Thermo Scientific). Cell samples were homogenized in buffer, followed by centrifugation at 2,000 rpm for 10 min at 4° C. Supernatants were subjected to Western blot analysis by loading 200 μg of protein per lane, after the protein concentrations were determined by Bradford protein assay. Proteins were fractionated by SDS-PAGE gel electrophoresis and transferred to a PVDF blotting membrane (Whatman, Piscataway, N.J.). The blot was incubated with primary antibodies against β-actin and Na—K-2C1 cotransport protein (Cell Signaling, Danvers Mass.); primary antibodies for p-SGK1, SGK1, pNedd4-2, and Nedd4-2 were utilized (concentration 1:1,000). The secondary antibody was horseradish peroxidaseconjugated goat anti-rabbit IgG (1:2,000; Cell Signaling).\nStatistical analysis. Images from films were imported into Adobe Photoshop (v 5.0), and further processed using Adobe Photoshop CS and ImageJ (National Institutes of Health) for the densitometry analysis. Data are reported as means±SD. Statistical analyses were performed with PRISM 4.0 (GraphPad Software, San Diego Calif.). Differences were analyzed with a one- or a two-way repeated measures ANOVA as appropriate or a two-way ANOVA followed by Bonferroni post hoc analyses that were corrected for multiple comparisons. Values of P <0.05 were considered significant."}, "caspase-3": {"system": "caspase-3", "experiment": "Caspase-3 expression in modiolar tissue samples", "format": "in vivo, mouse", "conditions": "ALD-treated middle-aged mice vs control middle-aged and young mice", "protocol": "During treatment, blood pressures were measured for the mice at 2 and 4 months after start of treatment. […] Death was confirmed by terminal phlebotomy/exsanguinations and perfusion. Cell lysates were collected and subject to western blot and RT-PCT analysis. The cells were placed in RIPA buffer and sonicated. Protein concentration was measured using the Bradford method. Proteins were separated by SDS-PAGE. The antibodies used for western blot were: anti-iNOS, nNOS and caspase-3 antibodies (Cell Signaling, Cambridge, Mass.). Total cellular RNA was extracted using the RNeasy Plus Mini Kit (74134). For RT-PCR, 10 ng of total cellular RNA was reverse transcribed and complementary DNA was amplified, using the Enhanced Avian HS RT-PCR-100 Kit (Sigma, HSRT20)."}, "[2]": {"experiment": "Tail-cuff plethysmography of blood pressure", "format": "in vivo, mouse", "conditions": "0.0016 mg/day pellet, measured at 2 and 4 months", "protocol": "(§1) FIG. 27(A) is graph showing the tail-cuff plethysmography of blood pressure for ALD treatments of 60 days and 120 days, compared to middle-age control mice. Diastolic blood pressures were measured for middle-aged (20-21 mon) CBA/CaJ mice and middle-age ALD treated (0.0016 mg/day continuous release through 120 days, one pellet for 60 days and subsequently a second pellet for 60 days) mice, each group, n=5. Pressures were taken at 60 and 120 days and compared to the middle-age control animals. Mean±SD for each group.\nas §1, with “27(B)” for “27(A)”, “is a” for “is”, “Systolic” for “Diastolic”\nDuring treatment, blood pressures were measured for the mice at 2 and 4 months after start of treatment."}, "[3]": {"system": "mineralocorticoid receptors (MCR)", "experiment": "MCR expression in spiral ganglion neurons (western blot, immunohistochemistry)", "format": "in vivo, mouse", "conditions": "middle-aged mice, ALD treatment vs young adult and middle age controls", "protocol": "Death was confirmed by terminal phlebotomy/exsanguinations and perfusion.\nAfter sacrifice, a cochlear modiolus (CM) was dissected from the temporal bone, & pooled together for measuring NKCC1 protein and mRNA expression. The other CM was prepared for immunohistochemistry as described below. Data was analyzed using one-way ANOVA, and two-way repeated measures ANOVA through GraphPad Prism 5.0 with protein level measurements (Δ Intensity=Background tissue intensity−experimental area intensity) (GraphPad Software, La Jolla, Calif.).\nFor Western blot and RT-PCR, cells were placed in RIPA buffer and sonicated. Protein concentration was measured using the Bradford method. Proteins were separated by SDS-PAGE. […]\nFor immunohistochemistry, mice were sacrificed, and one of the cochleae dissected, fixed in 4% paraformaldehyde in PBS overnight at 4° C., decalcification in 10% EDTA in PBS for a week at 4° C., and incubated in cryoprotection solution overnight at 4° C. […] The spiral ganglion neurons were counted by Metamorph imaging software (Molecular Devices, Center Valley, Pa. 18034-0610) and data analyzed by GraphPad Prism (GraphPad Software, Inc. La Jolla, Calif.).\nLevels of staining for MCR presence in young adult and middle-aged mice was determined by densitometry analysis (MetaMorph Image Analysis System) of immunocytochemistry sections."}, "NKCC1 [4]": {"system": "NKCC1", "conditions": "Jiang et al. 2003, cited from earlier work"}},
  "data": [
    {"smiles": "C[C@]12CCC(=O)C=C1CC[C@@H]1[C@@H]2[C@@H](O)C[C@]2(C=O)[C@@H](C(=O)CO)CC[C@@H]12", "note": "[ALD, aldosterone]", "values": [
      {"measurement": "induction of NKCC1 protein expression", "setting": "NKCC1 [1]; ALD 1 μM, MG-132 20 μM, CQ 50 μM, 9 h", "result": "induce NKCC1 protein expression similarly"},
      {"measurement": "decline of NKCC1 protein levels in response to cycloheximide", "setting": "NKCC1 [1]; ALD 1 μM, cycloheximide 20 μg/ml, 3, 6, or 9 h, relative to nontreated cells", "result": "much slower"},
      {"measurement": "threshold of NKCC1 induction (significant response)", "setting": "NKCC1 [1]; HT-29 cells", "result": "~10", "unit": "pM"},
      {"measurement": "time by which NKCC1 up-regulation took effect", "setting": "NKCC1 [1]; HT-29 cells, ALD 1 μM", "result": "≤ 2", "unit": "h"},
      {"measurement": "NKCC1 protein expression levels", "setting": "NKCC1 [1]; HT-29 cells, ALD 1 μM, stable over 12-24 h", "result": "upregulated"},
      {"measurement": "start of NKCC1 induction after treatment", "setting": "NKCC1 [1]; HT-29 cells, ALD (1 nM)", "result": "30 to 40", "unit": "min"},
      {"measurement": "caspase-3 levels in modiolar tissue", "setting": "caspase-3", "result": "reduced caspase-3 to levels below even the young mice samples"},
      {"measurement": "diastolic or systolic blood pressure", "setting": "[2]", "result": "neither aging nor the hormone treatment appeared to affect either diastolic or systolic blood pressure"},
      {"measurement": "MCR expression levels, densitometry of immunocytochemistry sections", "setting": "[3]", "result": "partially rescued the expression levels seen in the young adult"},
      {"measurement": "NKCC1 transcripts, real-time polymerase chain reaction", "setting": "NKCC1 [4]", "result": "did not elevate NKCC1 transcripts"},
      {"measurement": "increase in NKCC1 activity", "setting": "NKCC1 [4]; adrenalectomized rats, multiday treatment", "result": 63, "unit": "%"}
    ]}
  ]
}
